PubChem BioAssay AID256 (DTP/NCI, 2004)
Toxic doses and inconclusive results are not listed. How the source made its calls: active means survival T/C of 150% or more; inactive means T/C below 125% in these data.

Test system: CD2F1 mice, L1210 leukemia ip, survival T/C
Experiment: NCI In Vivo Anticancer Drug Screen. Data for tumor model L1210 Leukemia (intraperitoneal) in CD2F1 (CDF1) mice
Conditions: endpoint: mean survival time, higher = longer survival
In short: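 Read-out first: treated-group measurement over vehicle-control measurement, expressed as a ratio. Animals bore a transplanted tumor line and were dosed with compound or vehicle.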

[1] = dose: 100.0 mg/kg/injection, schedule: Q01DX001 (ip), vehicle: saline with Tween-80

Measured: T/C

[NH-]CC[NH-].[NH-]CC[NH-].[NH-]CC[NH-].[Ni]
inactive: dose: 6.25 mg/kg/injection, schedule: Q01DX009 (ip), vehicle: saline 103 % of control | dose: 6.25 mg/kg/injection, schedule: Q04DX003 (ip), vehicle: saline 97 % of control | dose: 12.5 mg/kg/injection, schedule: Q01DX009 (ip), vehicle: saline 101 % of control | dose: 12.5 mg/kg/injection, schedule: Q04DX003 (ip), vehicle: saline 93 % of control | dose: 25.0 mg/kg/injection, schedule: Q01DX009 (ip), vehicle: saline 92 % of control | dose: 25.0 mg/kg/injection, schedule: Q04DX003 (ip), vehicle: saline 106 % of control

O=C1C=CC(=O)N1c1ccc(Cl)cc1Br
inactive: dose: 5.0 mg/kg/injection, schedule: Q04DX003 (ip), vehicle: saline with Tween-80 95 % of control | dose: 10.0 mg/kg/injection, schedule: Q04DX003 (ip), vehicle: saline with Tween-80 89 % of control | dose: 20.0 mg/kg/injection, schedule: Q04DX003 (ip), vehicle: saline with Tween-80 92 % of control

O=C(O)c1ccco1
inactive: dose: 100.0 mg/kg/injection, schedule: Q04DX003 (ip), vehicle: saline 94 % of control | dose: 200.0 mg/kg/injection, schedule: Q04DX003 (ip), vehicle: saline 95 % of control

NNc1c(F)ccc(F)c1F
inactive: dose: 25.0 mg/kg/injection, schedule: Q01DX001 (ip), vehicle: saline with Tween-80 100 % of control | dose: 50.0 mg/kg/injection, schedule: Q01DX001 (ip), vehicle: saline with Tween-80 100 % of control | [1] 94 % of control

CCOC(=O)CSCC(=O)C(C)(C)C
inactive: [1] 98 % of control | dose: 200.0 mg/kg/injection, schedule: Q01DX001 (ip), vehicle: saline with Tween-80 98 % of control | dose: 400.0 mg/kg/injection, schedule: Q01DX001 (ip), vehicle: saline with Tween-80 102 % of control

CC(C)(O)C1CC2C=CC1C2 (stereo not given)
inactive: dose: 100.0 mg/kg/injection, schedule: Q04DX002 (ip), vehicle: saline with Tween-80 98 % of control | dose: 200.0 mg/kg/injection, schedule: Q04DX002 (ip), vehicle: saline with Tween-80 102 % of control | dose: 400.0 mg/kg/injection, schedule: Q04DX002 (ip), vehicle: saline with Tween-80 94 % of control

COc1cc2c(cc1O)-c1cc3ccc(OC)c(OC)c3c[n+]1CC2
inactive: dose: 25.0 mg/kg/injection, schedule: Q04DX002 (ip), vehicle: saline 111 % of control | dose: 25.0 mg/kg/injection, schedule: Q04DX003 (ip), vehicle: suspension in saline 94 % of control | dose: 50.0 mg/kg/injection, schedule: Q04DX002 (ip), vehicle: saline 97 % of control | dose: 50.0 mg/kg/injection, schedule: Q04DX003 (ip), vehicle: suspension in saline 90 % of control | dose: 100.0 mg/kg/injection, schedule: Q04DX002 (ip), vehicle: saline 104 % of control | dose: 100.0 mg/kg/injection, schedule: Q04DX003 (ip), vehicle: suspension in saline 102 % of control | dose: 200.0 mg/kg/injection, schedule: Q04DX002 (ip), vehicle: saline 104 % of control | dose: 200.0 mg/kg/injection, schedule: Q04DX003 (ip), vehicle: suspension in saline 109 % of control

c1ccc(C2CC([P+](c3ccccc3)(c3ccccc3)c3ccccc3)=NN2)cc1 (stereo not given)
inactive: dose: 2.7 mg/kg/injection, schedule: Q01DX009 (ip), vehicle: Klucel (hydroxypropylcellulose) (HPC) 110 % of control | dose: 4.1 mg/kg/injection, schedule: Q01DX009 (ip), vehicle: Klucel (hydroxypropylcellulose) (HPC) 112 % of control | dose: 5.5 mg/kg/injection, schedule: Q04DX003 (ip), vehicle: Klucel (hydroxypropylcellulose) (HPC) 106 % of control | dose: 6.25 mg/kg/injection, schedule: Q01DX009 (ip), vehicle: Klucel (hydroxypropylcellulose) (HPC) 108 % of control | dose: 8.2 mg/kg/injection, schedule: Q04DX003 (ip), vehicle: Klucel (hydroxypropylcellulose) (HPC) 106 % of control | dose: 9.3 mg/kg/injection, schedule: Q01DX009 (ip), vehicle: Klucel (hydroxypropylcellulose) (HPC) 110 % of control | dose: 11.0 mg/kg/injection, schedule: Q04DX002 (ip), vehicle: Klucel (hydroxypropylcellulose) (HPC) 102 % of control | dose: 12.5 mg/kg/injection, schedule: Q04DX003 (ip), vehicle: Klucel (hydroxypropylcellulose) (HPC) 104 % of control | dose: 14.0 mg/kg/injection, schedule: Q01DX009 (ip), vehicle: Klucel (hydroxypropylcellulose) (HPC) 102 % of control | dose: 16.0 mg/kg/injection, schedule: Q04DX002 (ip), vehicle: Klucel (hydroxypropylcellulose) (HPC) 95 % of control | dose: 18.0 mg/kg/injection, schedule: Q04DX003 (ip), vehicle: Klucel (hydroxypropylcellulose) (HPC) 108 % of control | dose: 22.0 mg/kg/injection, schedule: Q01DX001 (ip), vehicle: Klucel (hydroxypropylcellulose) (HPC) 104 % of control | dose: 25.0 mg/kg/injection, schedule: Q04DX002 (ip), vehicle: Klucel (hydroxypropylcellulose) (HPC) 102 % of control | dose: 28.0 mg/kg/injection, schedule: Q04DX003 (ip), vehicle: Klucel (hydroxypropylcellulose) (HPC) 108 % of control | dose: 35.0 mg/kg/injection, schedule: Q01DX001 (ip), vehicle: Klucel (hydroxypropylcellulose) (HPC) 110 % of control | dose: 35.0 mg/kg/injection, schedule: Q04DX002 (ip), vehicle: Klucel (hydroxypropylcellulose) (HPC) 96 % of control | dose: 55.0 mg/kg/injection, schedule: Q04DX002 (ip), vehicle: Klucel (hydroxypropylcellulose) (HPC) 104 % of control
